The nature of data set [1]: DBP release from cross-linked PDMS emulsion droplets (bare or silica nanoparticle-coated) into MilliQ water. In kind it is physicochemical. As to the method: FIG. 12 is a graph showing DBP release profiles from cross-linked PDMS emulsion droplets (φ=0.01) containing 0.025 wt % DBP, 900 ml MQ water as dissolution medium, where ⋄ bare PDMS droplets and PDMS droplets coated by hydrophobic silica nanoparticles: […]10^−4M NaCl; Δ10^−3M NaCl; ◯10^−1 M NaCl;
FIG. 13 is a graph showing Ln ([…]) versus time for drug release profiles from cross-linked PDMS emulsion droplets (φ=0.01) containing 0.025 wt % DBP, 900 ml MQ water as dissolution medium, where ◯ bare PDMS droplets and PDMS droplets coated by hydrophobic silica nanoparticles; […]10^−4M NaCl; Δ10^−3M NaCl; ◯10^−1 M NaCl;
FIG. 15 is a graph showing DBP release profiles from cross-linked PDMS emulsion droplets (φ=0.01) containing 0.25 wt % DBP in emulsions, 900 ml MQ water as dissolution medium, where ⋄ bare PDMS droplets and PDMS droplets coated by hydrophobic silica nanoparticles: […]10^−4 M NaCl; Δ10^−3 M NaCl; ◯10^−1 M NaCl;
(§1) DBP was incorporated into the PDMS droplets during the synthesis step outlined in Example 3. A modification of the method reported by Obey, T. M. and Vincent, B., (1994), Journal of Colloid Interface Science, 163:454-463 and Goller, M. I. et al., (1997), Physiochemical and Engineering Aspects, 123-124 and 183-193 (without dialysis) was employed (herein incorporated by reference). PDMS droplets were prepared according to Example 3. A further batch of cross-linked PDMS droplets were prepared using the same procedure as for liquid droplets except that the mixtures of monomer and cross-linking trimer DEDMS:TEMS (tritethoxymethylsilane) at ratios 1:0.1-1 were used instead of pure monomer. The cross-linking level of the droplets prepared ranged from 0, 10, 20, 30, 40 to 50%.
(§2) Bare and nanoparticle-coated droplet samples were prepared by mixing 10 ml of the prepared emulsions with 10 ml of sonicated MilliQ water and silica aqueous dispersions, respectively. Salt concentrations were adjusted from between 10^−4 to 10^−1 M NaCl in order to control the nanoparticle layer structure as described above.
Cross-linked droplets (40% cross-linked) were chosen for study due to the fact that DBP partitioning coefficients were the highest at this cross-linking level, i.e. entrapment of DBP was the highest. […] Hydrophilic silica nanoparticle-coated capsules (created at 10^−2 M NaCl) and permeable, hydrophobic silica nanoparticle-coated capsules (created at 10^−4 M NaCl) have no effect on drug dissolution as opposed to semi-permeable hydrophilic/hydrophobic silica nanoparticle coatings around capsules (created at 10^−3-10^−1 M NaCl).
The rate limiting step for drug release from bare cross-linked droplets is diffusion through the internal matrix, therefore the diffusion-limited model is applicable (FIG. 12). Good linear fits were obtained for the first 120 minutes of release (FIG. 13). Calculated diffusion coefficients are presented in the table of FIG. 14 and are in agreement with typical values for drug diffusion in gels (e.g. 4.8 to 6.5 nm^2s^−1).

The format of data set [2] is physicochemical. As to the method:
FIG. 10 is a graph showing DBP release profiles in 900 ml MQ water: pure DBP added: 1.1 mg/100 ml and DBP 0.1% wt in PDMS emulsion droplets (φ=0.01), where ⋄ bare liquid PDMS droplets; □ pure DBP; Δ pure DBP with hydrophilic silica nanoparticles; ◯ pure DBP with hydrophobic silica nanoparticles; * PDMS droplets coated by hydrophilic silica (10^−2 M NaCl); x PDMS droplets coated by hydrophobic silica nanoparticles (10^−4 M NaCl); + PDMS droplets coated by hydrophobic silica nanoparticles (10^−1 M NaCl); the dotted line corresponds to the maximal DBP concentration that can be achieved in the dissolution medium;
FIG. 11 is a graph of DBP release profiles in 900 ml MQ water, pure DBP added: 2.8 mg/100 ml and DBP (0.25% wt) in PDMS emulsion droplets (φ=0.01): ⋄ bare liquid PDMS droplets; □ pure DBP; Δ pure DBP with hydrophilic silica nanoparticles; ◯ pure DBP with hydrophobic silica nanoparticles; * PDMS droplets coated by hydrophilic silica nanoparticles (10^−2 M NaCl); x PDMS droplets coated by hydrophobic silica nanoparticles (10^−4 M NaCl); + PDMS droplets coated by hydrophobic silica nanoparticles (10-1 M NaCl); dotted line correspond to the maximal DBP concentration that can be achieved in the dissolution medium;
However, the dissolution rate is increased when DBP is incorporated into PDMS emulsion droplets.
Similar trends of increased solubility rate occur when the total DBP concentration is well above the solubility limit (2.8 mg/100 ml) (FIG. 11). The observed increase in solubility of DBP is even more evident giving rise to supersaturated solutions. The intensity and duration of the “supersaturation” effect is much more pronounced for hydrophobic silica coated droplets. For hydrophilic particles, the peak in the soluble DBP concentration is at a maximum after 2 hours and then subsequently the soluble amount of DBP decreases within the next 6 hours and eventually reduces back to the solubility limit (FIG. 11).

Data set [3] in a line: DBP release from liquid PDMS emulsion droplets (bare or silica nanoparticle-coated) into MilliQ water, sink conditions. It is filed as physicochemical. Conditions: for release rate constant (interfacial transport): hydrophobic nanoparticle-coated liquid PDMS droplets; for activation energy (Ea) for crossing the interfacial barrier: liquid PDMS droplets, Arrhenius, 22-37° C. As to the method:
FIG. 7 is a graph of Ln (1−Mt/M0) versus time for DBP release profiles from hydrophobic nanoparticle-coated liquid PDMS emulsion (φ=0.01) containing 0.025 wt % DBP, 900 ml MQ water as dissolution medium, where […]10^−3M NaCl; ⋄10^−2 M NaCl; Δ10^−1 M NaCl;
FIG. 8 is a graph showing Arrhenius plots for DBP release profiles from hydrophobic coated liquid PDMS emulsion droplets (φ=0.01) containing 0.025 wt % DBP, 900 ml MQ water as dissolution medium, where […]10^−1 M NaCl; ⋄10^−3M NaCl;
In experiments, dibutylphthalate (DBP) was chosen as a model drug because it is a liquid that is poorly soluble but readily miscible with PDMS. Release profiles of DBP were determined from both bare droplets (i.e. droplets not coated with nanoparticles) and coated droplets (i.e. droplets coated with hydrophilic particles and from droplets coated with hydrophobic particles).
as §1, §2
The release rate is even more retarded in the presence of a thick interfacial particle wall prepared at 10^−1 M NaCl. Thus, depending on salt concentration, hydrophobic silica nanoparticle coatings can provide a permeable or semi-permeable barrier.
The activation energy for crossing the interfacial barrier was determined using an Arrhenius approach. Release profiles for droplets coated at 10^−3 M NaCl and 10^−1 M NaCl were determined at four temperatures: 22° C., 27° C., 32° C. and 37° C. Kinetic rate constants were determined for each temperature from equation A above and from the plots Ln k vs. 1/T (FIG. 8) the activation energies (Ea) were calculated:
Aqueous solutions containing 1% diethoxy-dimethyl-silane (DEDMS), which was previously mixed with 0, 0.025, 0.1 and 0.25 wt % DBP in a nitrogen gas atmosphere, and 0.1% ammonia were sealed under nitrogen gas in a 250 ml reaction vessel, shaken vigorously for 30 seconds, and than tumbled at 30 rpm and 25° C. for 18 hours.

We go through one compound from US20110229559A1, “Drug Release From Nanoparticle-Coated Capsules” (University of South Australia, priority 2006, published 2011).

In the case of `CCCCOC(=O)c1ccccc1C(=O)OCCCC` [DBP, dibutylphthalate], the “activation energy for drug diffusion” value in data set [1] (bare cross-linked droplets) is reported as 127±15 kJmol^-1; in data set [1] (cross-linked droplets with hydrophobic silica nanoparticle coating, first value given), 155 kJmol^-1; in data set [1] (cross-linked droplets with hydrophobic silica nanoparticle coating, second value given), 177±25 kJmol^-1. In addition, the “time for release process to reach equilibrium” value in data set [1] (cross-linked PDMS droplets, 0.025 wt % DBP) is “approximately 2 hours”. Besides, the diffusion coefficient in data set [1] (cross-linked droplets with hydrophobic silica nanoparticle coating, first value given (salt level not stated, presumably 10^-3 M NaCl)) worked out at 3.2 nm^2s^-1; in data set [1] (cross-linked droplets with hydrophobic silica nanoparticle coating, second value given (salt level not stated, presumably 10^-1 M NaCl)) it was 2.4±0.5 nm^2s^-1; in data set [1] (cross-linked droplets, DBP concentration above the solubility limit (0.25 wt %), first 90 minutes), 3.5±0.5 nm^2s^-1. In addition, the “amount of DBP loaded still remaining in the droplets after 2 hours” value in data set [1] (cross-linked droplets, bare and coated with permeable silica nanoparticle coatings at 10^-4 M NaCl) is given as 25%; in data set [1] (cross-linked droplets, silica coating at 10^-1 M NaCl), 46%; in data set [1] (cross-linked droplets, silica coating at 10^-3 M NaCl), 37%. For the same compound, the “time after which amount in solution reduces to the normal solubility limit (duration of supersaturation)” value in data set [2] is 10 h. Further, the “time of peak soluble DBP concentration” value in data set [2] stood at 2 h. Moreover, the “time to achieve the equilibrium solubility level” value in data set [2] is on record as “approximately 20 hours”. Further, in data set [3] (bare liquid PDMS droplets, drug concentration significantly below its solubility limit in water), the “drug release from within the bare droplets” value was “rapid and complete”. Further, the “release rate constant (interfacial transport)” value in data set [3] (at 10^-1 M NaCl) is given as 0.05 nm^2s^-1; in data set [3] (at 10^-3 and 10^-2 M NaCl) it was 0.3 nm^2s^-1. The half release time entry in data set [3] (liquid PDMS droplets coated with hydrophobic silica nanoparticles at 10^-3 and 10^-2 M NaCl, 0.025 wt % DBP) is on record as “approximately 18 hours”. The “activation energy (Ea) for crossing the interfacial barrier” value in data set [3] (nanoparticle layer prepared at 10^-1 M NaCl) amounted to 630 kJmol^-1; in data set [3] (nanoparticle layer prepared at 10^-3 M NaCl) it was 580 kJmol^-1.
